Columns and labels:
[1] = target: T1, ULK1 kinase domain (Homo sapiens, UniProt O75385); experiment: Differential scanning fluorimetry (thermal shift); type: binding; conditions: 2 μM ULK1 kinase domain, 50 μM compound, vs DMSO reference
T1 construct: The protein expression construct of ULK1 kinase domain (1-283) was cloned; 6His-Sumo (N, cleaved yes); made in house; host or cells: E. coli BL21 star, co-expressed with lambda phosphatase
T1 sequence (O75385 1-283): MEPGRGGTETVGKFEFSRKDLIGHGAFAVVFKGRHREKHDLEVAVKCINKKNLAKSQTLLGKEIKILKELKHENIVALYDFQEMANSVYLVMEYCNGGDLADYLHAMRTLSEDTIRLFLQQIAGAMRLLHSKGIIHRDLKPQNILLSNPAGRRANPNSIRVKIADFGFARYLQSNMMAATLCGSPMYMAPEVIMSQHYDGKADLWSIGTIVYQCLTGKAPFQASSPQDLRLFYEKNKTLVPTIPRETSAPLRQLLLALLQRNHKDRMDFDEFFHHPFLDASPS

[2] = target: T2, ULK1 kinase (Homo sapiens, UniProt O75385); experiment: Radiometric HotSpot kinase assay (Reaction Biology); type: biochemical; conditions: activity-based ULK1 kinase assay
T2 construct: purchased Reaction Biology
T2 sequence (O75385 1-1050): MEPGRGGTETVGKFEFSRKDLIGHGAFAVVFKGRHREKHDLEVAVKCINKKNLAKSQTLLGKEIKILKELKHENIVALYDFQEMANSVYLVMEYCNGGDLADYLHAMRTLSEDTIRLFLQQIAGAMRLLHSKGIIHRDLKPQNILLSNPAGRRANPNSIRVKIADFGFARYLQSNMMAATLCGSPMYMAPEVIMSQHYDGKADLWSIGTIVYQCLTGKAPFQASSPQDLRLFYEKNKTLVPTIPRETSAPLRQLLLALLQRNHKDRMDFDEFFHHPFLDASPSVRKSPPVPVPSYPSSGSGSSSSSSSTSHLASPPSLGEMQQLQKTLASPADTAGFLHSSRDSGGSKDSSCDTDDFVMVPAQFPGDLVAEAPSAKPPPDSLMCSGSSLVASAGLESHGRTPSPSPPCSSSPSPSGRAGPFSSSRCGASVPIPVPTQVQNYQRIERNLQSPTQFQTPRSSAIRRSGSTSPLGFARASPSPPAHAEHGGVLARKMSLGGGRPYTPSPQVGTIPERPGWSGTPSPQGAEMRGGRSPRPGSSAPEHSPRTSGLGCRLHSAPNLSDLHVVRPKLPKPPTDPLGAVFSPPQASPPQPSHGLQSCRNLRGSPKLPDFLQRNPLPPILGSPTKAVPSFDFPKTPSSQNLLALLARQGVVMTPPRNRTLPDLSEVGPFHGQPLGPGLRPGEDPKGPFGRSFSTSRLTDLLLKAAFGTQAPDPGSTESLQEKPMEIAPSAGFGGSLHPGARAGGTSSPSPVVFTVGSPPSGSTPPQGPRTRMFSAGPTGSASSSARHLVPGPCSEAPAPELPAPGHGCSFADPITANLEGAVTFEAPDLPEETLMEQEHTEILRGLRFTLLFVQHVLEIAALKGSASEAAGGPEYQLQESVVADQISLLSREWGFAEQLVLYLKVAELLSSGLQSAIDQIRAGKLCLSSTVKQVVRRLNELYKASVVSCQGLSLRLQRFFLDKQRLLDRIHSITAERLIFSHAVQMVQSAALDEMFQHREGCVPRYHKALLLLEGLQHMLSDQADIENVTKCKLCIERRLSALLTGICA

[3] = target: T3, GST-ULK1 (Homo sapiens, UniProt O75385); experiment: LanthaScreen ULK1 inhibitor assay; type: biochemical; conditions: 5 nM GST-ULK1, 30 nM tracer, 20 μM ATP, 1 hr room temperature
T3 sequence (O75385 1-1050): T2 sequence (O75385 1-1050)

[4] = target: T4, ULK1-nanoluc (Homo sapiens, UniProt O75385); experiment: NanoBRET target engagement in live cells; type: cell-based; conditions: H2030 cells transfected with ULK1-nanoluc, Tracer K10, 2 hr
T4 construct: host or cells: H2030 cells (ATCC)
T4 sequence (O75385 1-1050): T2 sequence (O75385 1-1050)

Row | Structure (SMILES) | ΔTm at 50 µM [1] [°C] | IC50 [2] [nM] | IC50 [3] [nM] | EC50 [4] [nM]
1 | CC[C@H](CO)NC(=O)c1cccc(-c2cnc3[nH]c(-c4ccc(F)cc4)cc3c2)n1 [Compound 56, (R)-6-(2-(4-Fluorophenyl)-1H-pyrrolo[2,3-b]pyridin-5-yl)-N-(1-hydroxybutan-2-yl)-picolinamide] | 6.85 | 72 | 80 | –
2 | O=C(NCC(O)C(F)(F)F)c1cccc(-c2cnc3[nH]c(-c4ccc(F)cc4)cc3c2)n1 (stereo not shown) [Compound 57, 6-(2-(4-Fluorophenyl)-1H-pyrrolo[2,3-b]pyridin-5-yl)-N-(3,3,3-trifluoro-2-hydroxy-propyl)picolinamide] | 8.73 | 49 | 20 | –
3 | CC[C@H](CO)NC(=O)c1nc(-c2cnc3[nH]c(-c4ccc(F)cc4)cc3c2)cs1 [Compound 62, (R)-4-(2-(4-Fluorophenyl)-1H-pyrrolo[2,3-b]pyridin-5-yl)-N-(1-hydroxybutan-2-yl)-thiazole-2-carboxamide] | 4.81 | 78 | 182 | –
4 | O=C(NC(CO)CO)c1nc(-c2cnc3[nH]c(-c4ccc(F)cc4)cc3c2)cs1 [Compound 63, N-(1,3-Dihydroxypropan-2-yl)-4-(2-(4-fluorophenyl)-1H-pyrrolo[2,3-b]pyridin-5-yl)-thiazole-2-carboxamide] | 6.46 | 55 | 103 | –
5 | O=C(NCC1(O)CCCC1)c1nc(-c2cnc3[nH]c(-c4ccc(F)cc4)cc3c2)cs1 [Compound 72, 4-(2-(4-fluorophenyl)-1H-pyrrolo-[2,3-b]pyridin-5-yl)-N-((1-hydroxy-cyclopentyl)methyl)thiazole-2-carboxamide] | 7.96 | 50 | 36 | –
6 | O=C(c1nc(-c2cnc3[nH]c(-c4ccc(F)cc4)cc3c2)cs1)N1CC(F)C1 [Compound 74, (3-fluoroazetidin-1-yl)(4-(2-(4-fluorophenyl)-1H-pyrrolo[2,3-b]-pyridin-5-yl)thiazol-2-yl)methanone] | 1.87 | 644 | 665 | –
7 | C[C@H](CO)NC(=O)c1nc(-c2cnc3[nH]c(-c4ccc(F)cc4)cc3c2)cs1 [Compound 77, (R)-4-(2-(4-fluorophenyl)-1H-pyrrolo[2,3-b]pyridin-5-yl)-N-(1-hydroxypropan-2-yl)thiazole-2-carboxamide] | 4.54 | 348 | 741 | –
8 | O=C(NC1CNC1)c1nc(-c2cnc3[nH]c(-c4ccc(F)cc4)cc3c2)cs1 [Compound 80, N-(azetidin-3-yl)-4-(2-(4-fluoro-phenyl)-1H-pyrrolo[2,3-b]pyridin-5-yl)thiazole-2-carboxamide] | 4.99 | 502 | 966 | –
9 | Fc1ccc(-c2cc3c(NCC(F)(F)F)c(C(F)(F)F)cnc3[nH]2)cc1 [Compound 81, 2-(4-fluorophenyl)-N-(2,2,2-trifluoroethyl)-5-(trifluoromethyl)-1H-pyrrolo[2,3-b]pyridin-4-amine] | 5.41 | 15 | 14 | –
10 | Fc1ccc(-c2cc3c(NC4CCC4)c(C(F)(F)F)cnc3[nH]2)cc1 [Compound 82, N-cyclobutyl-2-(4-fluorophenyl)-5-(trifluoro-methyl)-1H-pyrrolo[2,3-b]pyridin-4-amine] | 4.39 | 9 | 24 | –
11 | FC(F)(F)c1cnc2[nH]c(C3CCOCC3)cc2c1NC1CCNC1 (stereo not shown) [Compound 83, N-(pyrrolidin-3-yl)-2-(tetrahydro-2H-pyran-4-yl)-5-(trifluoromethyl)-1H-pyrrolo[2,3-b]-pyridin-4-amine] | 6.81 | 401 | 208 | –
12 | FC(F)(F)c1cnc2[nH]c(C3=CCOCC3)cc2c1NC1CCNC1 (stereo not shown) [Compound 84, 2-(3,6-dihydro-2H-pyran-4-yl)-N-(pyrrolidin-3-yl)-5-(trifluoromethyl)-1H-pyrrolo[2,3-b]pyridin-4-amine] | 7.13 | 549 | 412 | –
13 | FC1(F)CN(c2c(C(F)(F)F)cnc3[nH]c(C4=CCOCC4)cc23)C1 [Compound 86, 4-(3,3-Difluoroazetidin-1-yl)-2-(3,6-dihydro-2H-pyran-4-yl)-5-(trifluoromethyl)-1H-pyrrolo[2,3-b]pyridine] | 6.82 | 56 | 172 | –
14 | FC(F)(F)c1cnc2[nH]c(C3CCOCC3)cc2c1NCCN1CCOCC1 [Compound 88, N-(2-morpholinoethyl)-2-(tetrahydro-2H-pyran-4-yl)-5-(trifluoromethyl)-1H-pyrrolo-[2,3-b]pyridin-4-amine] | 2.37 | 4450 | 4520 | –
15 | FC(F)(F)c1cnc2[nH]c(C3CCOCC3)cc2c1NCCCN1CCCC1 [Compound 90, N-(3-(pyrrolidin-1-yl)propyl)-2-(tetrahydro-2H-pyran-4-yl)-5-(trifluoromethyl)-1H-pyrrolo[2,3-b]pyridin-4-amine] | 9.23 | 155 | 145 | –
16 | FC(F)(F)c1cnc2[nH]c(C3=CCOCC3)cc2c1NCCCN1CCCC1 [Compound 91, 2-(3,6-dihydro-2H-pyran-4-yl)-N-(3-(pyrrolidin-1-yl)propyl)-5-(trifluoromethyl)-1H-pyrrolo[2,3-b]pyridin-4-amine] | 9.77 | 110 | 167 | –
17 | FC1(F)CCN(c2c(C(F)(F)F)cnc3[nH]c(C4=CCOCC4)cc23)CC1 [Compound 93, 4-(4,4-Difluoropiperidin-1-yl)-2-(3,6-dihydro-2H-pyran-4-yl)-5-(trifluoromethyl)-1H-pyrrolo[2,3-b]pyridine] | 2.03 | 7070 | 8280 | –
18 | CN1CCC(c2cc3c(NCCN4CCOCC4)c(C(F)(F)F)cnc3[nH]2)CC1 [Compound 95, 2-(1-methylpiperidin-4-yl)-N-(2-morpholinoethyl)-5-(trifluoromethyl)-1H-pyrrolo[2,3-b]pyridin-4-amine] | 0.49 | 758 | 917 | –
19 | CN1CC=C(c2cc3c(NCCCN4CCCC4)c(C(F)(F)F)cnc3[nH]2)CC1 [Compound 97, 2-(1-methyl-1,2,3,6-tetrahydropyridin-4-yl)-N-(3-(pyrrolidin-1-yl)propyl)-5-(trifluoro-methyl)-1H-pyrrolo[2,3-b]pyridin-4-amine] | 7.07 | 2380 | 541 | –
20 | CN1CC=C(c2cc3c(NCCN4CCOCC4)c(C(F)(F)F)cnc3[nH]2)CC1 [Compound 99, 2-(1-methyl-1,2,3,6-tetrahydropyridin-4-yl)-N-(2-morpholinoethyl)-5-(trifluoromethyl)-1H-pyrrolo[2,3-b]pyridin-4-amine] | 7.77 | 625 | 374 | –
21 | CN1CC=C(c2cc3c(N4CC(F)(F)C4)c(C(F)(F)F)cnc3[nH]2)CC1 [Compound 100, 4-(3,3-difluoroazetidin-1-yl)-2-(1-methyl-1,2,3,6-tetrahydropyridin-4-yl)-5-(trifluoromethyl)-1H-pyrrolo[2,3-b]pyridine] | 4.99 | 171 | 218 | –
22 | C[C@@H](CO)NC(=O)c1cc(-c2cnc3[nH]c(C4=CCCNC4)cc3c2)cs1 [Compound 102] | – | – | 15 | 952
23 | C[C@H](CO)NC(=O)c1cc(-c2cnc3[nH]c(C4=CCCNC4)cc3c2)cs1 [Compound 103] | – | – | 36 | 1400

— patent US20250042895A1, “INHIBITORS OF ULK1 AND METHODS OF USE” (H. LEE MOFFITT CANCER CENTER AND RESEARCH INSTITUTE, INC., priority 2021, published 2025)
